Reference: patent US20150141411A1, “SUBSTITUTED 3,4-DIHYDRO-2H-PYRIDO[1,2-A]PYRAZINE-1,6-DIONE DERIVATIVES USEFUL FOR THE TREATMENT OF (INTER ALIA) ALZHEIMER'S DISEASE” (Janssen Pharmaceuticals, Inc., priority 2012, published 2015)

Key:
γ-secretase = biological target: T1, γ-secretase (Homo sapiens, UniProt P49768); assay: Screening for γ-secretase-modulating activity: Aβtotal in supernatant of SKNBE2 cells carrying hAPP 695 wild type (Alphalisa); type: cell-based; conditions: SKNBE2 human neuroblastoma cells carrying hAPP 695 wild type, overnight incubation, Aβtotal in cell supernatant
T1 construct: endogenous in cells; host or cells: SKNBE2 human neuroblastoma cells (carrying hAPP 695 wild type as substrate)
Outline: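 SKNBE2 neuroblastoma cells expressing wild-type hAPP 695 plated at 10^4 cells/well in Ultraculture with test compound, incubated overnight at 37° C. Aβ42 (C-terminal/N-terminal antibody pair) and Aβtotal (N-terminal/4G8 pair) in supernatant quantified by AlphaLISA. IC50 from 4-parameter fit of percent of compound-free control.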

Aβ38 = assay: In vivo efficacy: brain soluble Aβ38 in non-transgenic rodents (MSD electrochemiluminescence multiplex); design: species or system mouse; conditions: dose 30 mg/kg oral dosing, brain soluble fraction, animals sacrificed after 4 h; for response vs control in vivo at 30 mg/kg: Mus musculus, po, 4 h, untreated animals (Ctrl) set at 100, read-out: Aβ38 (% vs Ctrl)_Mean
Source text: To determine whether acute administration of an Aβ38 increasing agents would increase Aβ38 levels in vivo, non-transgenic rodents, e.g. mice or rats were used. Animals treated with the Aβ38 increasing agents were examined and compared to those untreated or treated with vehicle and brain levels of soluble Aβ42, Aβ40, Aβ38, and Aβ37 were quantitated by MSD electrochemiluminescence detection technology. Treatment periods varied from hours (h) to days and were adjusted based on the results of the Aβ38 increase once a time course of onset of effect could be established.
A typical protocol for measuring Aβ38 increase in vivo is shown but it is only one of many variations that could be used to optimize the levels of detectable Aβ. For example, Aβ38 increasing agents were formulated in 20% of Captisol® (a sulfobutyl ether of β-cyclodextrin) in water or 20% hydroxypropyl βcyclodextrin. The Aβ38 increasing agents were administered as a single oral dose or by any acceptable route of administration to overnight fasted animals. After 4 h, the animals were sacrificed and Aβ38 levels were analysed.
Blood was collected by decapitation and exsanguinations in EDTA-treated collection tubes. Blood was centrifuged at 1900 g for 10 minutes (min) at 4° C. and the plasma recovered and flash frozen for later analysis. The brain was removed from the cranium and hindbrain. The cerebellum was removed and the left and right hemisphere were separated. The left hemisphere was stored at −18° C. for quantitative analysis of test compound levels. The right hemisphere was rinsed with phosphate-buffered saline (PBS) buffer and immediately frozen on dry ice and stored at −80° C. until homogenization for biochemical assays.
Mouse brains from non-transgenic animals were resuspended in 8 volumes of 0.4% DEA (diethylamine)/50 mM NaCl containing protease inhibitors (Roche-11873580001 or 04693159001) per gram of tissue, e.g. for 0.158 g brain, add 1.264 ml of 0.4% DEA. All samples were homogenized in the FastPrep-24 system (MP Biomedicals) using lysing matrix D (MPBio #6913-100) at 6 m/s for 20 seconds. Homogenates were centrifuged at 20800×g for 5 min and supernatants collected. Supernatants were centrifuged at 221.300×g for 50 min. The resulting high speed supernatants were then transferred to fresh eppendorf tubes. Nine parts of supernatant were neutralized with 1 part 0.5 M Tris-HCl pH 6.8 and used to quantify Aβ.
To quantify the amount of Aβ42, Aβ40, Aβ38, and Aβ37 in the soluble fraction of the brain homogenates, simultaneous specific detection of Aβ42, Aβ40, Aβ38, and Aβ37 was performed using MSD's electro-chemiluminescence multiplex detection technology. In this assay purified monoclonal antibodies specific for Abeta37 (JRD/Aβ37/3), Abeta38 (J&JPRD/Aβ38/5), Abeta40 (JRF/cAβ40/28), and Abeta42 (JRF/cAβ42/26) were coated on MSD 4-plex plates. Briefly, the standards (a dilution of synthetic Aβ42, Aβ40, Aβ38, and Aβ37) were prepared in 1.5 ml Eppendorf tube in Ultraculture, with final concentrations ranging from 10000 to 0.3 pg/m. The samples and standards were co-incubated with Sulfo-tag labelled JRF/rAβ/2 antibody to the N-terminus of Aβ as detector antibody. 50 μl of conjugate/sample or conjugate/standards mixtures were then added to the antibody-coated plate. The plate was allowed to incubate overnight at 4° C. in order to allow formation of the antibody-amyloid complex. Following this incubation and subsequent wash steps the assay was finished by adding read buffer according to the manufacturer's instructions (MesoScale Discovery, Gaitherburg, Md.).
The SULFO-TAG emits light upon electrochemical stimulation initiated at the electrode. MSD Sector instrument SI6000 was used for signal read-out.
In this model a Aβ38 increase compared to untreated animals would be advantageous, in particular a Aβ38 increase with at least 10%, more in particular a Aβ38 increase with at least 20%. […]

SMILES	IC50 (γ-secretase)	response vs control in vivo at 30 mg/kg (Aβ38)	Aβ38 (% vs Ctrl)_Mean (Aβ38; untreated animals (Ctrl) set at 100, 30 mg/kg)
Cc1cn(-c2ccc3n(c2=O)C[C@@H](C)N(Cc2cc(N4CCOC(C(F)(F)F)C4)cc(C(F)(F)F)c2)C3=O)cn1 (mixture of isomers) [compound 153]	> 10 µM	108%	–
Cc1cn(-c2ccc3n(c2=O)CCN(C(C)c2cccc(Cl)c2Cl)C3=O)cn1 (single isomer, unassigned) [10a]	> 10 µM	–	–
Cc1cn(-c2ccc3n(c2=O)CC(C)N(C(C)c2cc(C(F)(F)F)cc(C(F)(F)F)c2)C3=O)cn1.Cl (single isomer, unassigned) [compound 111]	> 10 µM	136%	–
Cc1cn(-c2ccc3n(c2=O)CC(C)N(C(C)c2cc(C(F)(F)F)cc(C(F)(F)F)c2)C3=O)cn1.Cl (single isomer, unassigned) [compound 112]	> 10 µM	–	153 % vs Ctrl
CCC(c1cc(OC)cc(C(F)(F)F)c1)N1C(=O)c2ccc(-n3cnc(C)c3)c(=O)n2C[C@H]1C (single isomer, unassigned) [compound 141]	> 10 µM	145%	–
CCOc1cc(C(C)N2C(=O)c3ccc(-n4cnc(C)c4)c(=O)n3C[C@H]2C)cc(C(F)(F)F)c1 (single isomer, unassigned) [compound 143]	> 10 µM	122%	–
Cc1cn(-c2ccc3n(c2=O)CCN(C(C)c2c[nH]c4cc(F)c(Cl)cc24)C3=O)cn1 (single isomer, unassigned) [compound 183]	6.76 µM	141%	–
Cc1cn(-c2ccc3n(c2=O)CCN(C(C)c2cn(C)c4cc(F)c(Cl)cc24)C3=O)cn1 (single isomer, unassigned) [compound 185]	5.89 µM	170%	–
Cc1cn(-c2ccc3n(c2=O)CC(C)N(C(C)c2cn(C)c4cc(F)c(Cl)cc24)C3=O)cn1 (single isomer, unassigned) [compound 189]	–	116%	–
CCn1cc(C(C)N2C(=O)c3ccc(-n4cnc(C)c4)c(=O)n3CC2C)c2cc(Cl)c(F)cc21 (single isomer, unassigned) [compound 192]	1.82 µM	147%	–
Cc1cn(-c2ccc3n(c2=O)CC(C)N(C(C)c2cn(C(C)C)c4cc(F)c(Cl)cc24)C3=O)cn1 (single isomer, unassigned) [compound 194]	1.55 µM	197%	–
Cc1cn(-c2ccc3n(c2=O)CC(C)N(C(C)c2c[nH]c4c(F)cc(Cl)cc24)C3=O)cn1 (single isomer, unassigned) [compound 219]	3.09 µM	119%	–
CCC1Cn2c(ccc(-n3cnc(C)c3)c2=O)C(=O)N1Cc1cc(C(F)(F)F)cc(C(F)(F)F)c1.Cl (stereo not shown) [compound 1]	> 10 µM	–	–
Cc1cn(-c2ccc3n(c2=O)CCN(Cc2cccc(-c4ccccc4)c2)C3=O)cn1 [compound 5]	> 10 µM	–	–
Cc1cn(-c2ccc3n(c2=O)CC(C)N(Cc2cc(OCC4CC4)cc(C(F)(F)F)c2)C3=O)cn1.Cl (stereo not shown) [compound 6]	> 10 µM	118%	–
CCc1cn(-c2ccc3n(c2=O)CC(C)N(Cc2cc(C(F)(F)F)cc(C(F)(F)F)c2)C3=O)cn1.Cl (stereo not shown) [compound 7]	> 10 µM	–	–
Cc1cn(-c2ccc3n(c2=O)CCN(Cc2ccccc2C)C3=O)cn1 [compound 22]	> 10 µM	–	–
Cc1cn(-c2ccc3n(c2=O)C[C@@H](C)N(CCc2cc(C(F)(F)F)cc(C(F)(F)F)c2)C3=O)cn1 [compound 50]	> 10 µM	160%	–
Cc1cn(-c2ccc3n(c2=O)CCN(Cc2ccc(Cl)c(C(F)(F)F)c2)C3=O)cn1 [compound 65]	> 10 µM	–	–
Cc1cn(-c2ccc3n(c2=O)C[C@@H](C)N(Cc2cc(N4CCC(C)CC4)ccc2Cl)C3=O)cn1 [compound 80]	> 10 µM	133%	–
Cc1cn(-c2ccc3n(c2=O)C[C@@H](C)N(Cc2cc(N4CCCC4)ccc2Cl)C3=O)cn1 [compound 82]	> 10 µM	118%	–
Cc1cn(-c2ccc3n(c2=O)CCN(Cc2ccc(C)c(N4CCCCC4)c2)C3=O)cn1 [compound 99]	> 10 µM	–	–
C[C@@H]1Cn2c(ccc(-n3cnc(Cl)c3)c2=O)C(=O)N1Cc1cc(C(F)(F)F)cc(C(F)(F)F)c1 [compound 118]	> 10 µM	140%	–
Cc1cn(-c2cc(F)c3n(c2=O)C[C@@H](C)N(Cc2cc(C(F)(F)F)cc(C(F)(F)F)c2)C3=O)cn1 [compound 158]	> 10 µM	120%	–

Now from value to compound, other results behind:

IC50 (γ-secretase)	SMILES	response vs control in vivo at 30 mg/kg (Aβ38)	Aβ38 (% vs Ctrl)_Mean (Aβ38; untreated animals (Ctrl) set at 100, 30 mg/kg)
> 10 µM	Cc1cn(-c2ccc3n(c2=O)C[C@@H](C)N(Cc2ccc(Cl)c(Cl)c2)C3=O)cn1 [compound 2]	–	–
> 10 µM	Cc1cn(-c2ccc3n(c2=O)CC(C)N(Cc2cc(C(F)(F)F)cc(C(F)(F)F)c2)C3=O)cn1 (stereo not shown) [compound 3]	133%	–
> 10 µM	Cc1cn(-c2ccc3n(c2=O)C[C@@H](C)N(Cc2cccc(C(C)(C)C)c2)C3=O)cn1 [compound 23]	–	–
> 10 µM	Cc1cn(-c2ccc3n(c2=O)C[C@@H](C)N(Cc2ccc(C(F)(F)F)c(C(F)(F)F)c2)C3=O)cn1 [compound 46]	–	–
> 10 µM	Cc1cc(CN2C(=O)c3ccc(-n4cnc(C)c4)c(=O)n3C[C@H]2C)cc(C(F)(F)F)c1 [compound 59]	–	–
> 10 µM	Cc1cn(-c2ccc3n(c2=O)C[C@@H](C)N(Cc2ccc(Cl)c(C(F)(F)F)c2)C3=O)cn1 [compound 62]	–	–
> 10 µM	Cc1cn(-c2ccc3n(c2=O)C[C@@H](C)N(Cc2cc(Cl)cc(C(F)(F)F)c2)C3=O)cn1 [compound 63]	–	–
> 10 µM	Cc1cn(-c2ccc3n(c2=O)C[C@@H](C)N(Cc2cc(CC4CC4)cc(C(F)(F)F)c2)C3=O)cn1 [compound 110]	102%	–
> 10 µM	Cc1cn(-c2ccc3n(c2=O)C[C@@H](C)N(Cc2cc(C4CC4)cc(C(F)(F)F)c2)C3=O)cn1 [compound 116]	182%	–
> 10 µM	Cc1cn(-c2ccc3n(c2=O)C[C@@H](C)N(Cc2cc(OC(C)C)nc(C(F)(F)F)c2)C3=O)cn1 [compound 128]	162%	–
> 10 µM	COc1cccc(CN2C(=O)c3ccc(-n4cnc(C)c4)c(=O)n3C[C@H]2C)c1 [compound 132]	84%	–
> 10 µM	Cc1cn(-c2ccc3n(c2=O)C[C@@H](C)N(Cc2ccc(F)c(F)c2)C3=O)cn1 [compound 133]	84%	–
> 10 µM	Cc1cn(-c2ccc3n(c2=O)C[C@@H](C)N(Cc2cc(CC(F)(F)F)cc(C(F)(F)F)c2)C3=O)cn1 [compound 134]	138%	–
> 10 µM	Cc1cn(-c2ccc3n(c2=O)C[C@@H](C)N(Cc2cc(OC(F)(F)F)cc(C(F)(F)F)c2)C3=O)cn1 [compound 140]	96%	–
> 10 µM	Cc1cn(-c2ccc3n(c2=O)C[C@@H](C)N(Cc2cc(Br)cc(C(F)(F)F)c2)C3=O)cn1 [compound 145]	102%	–
